Assay [1] addresses T1, Human HDAC8 (Homo sapiens, UniProt Q9BY41).
T1 construct: full length with C-terminal His tag, MW=42.6 kDa; His (C); host or cells: baculovirus expression system
T1 sequence (Q9BY41 1-377): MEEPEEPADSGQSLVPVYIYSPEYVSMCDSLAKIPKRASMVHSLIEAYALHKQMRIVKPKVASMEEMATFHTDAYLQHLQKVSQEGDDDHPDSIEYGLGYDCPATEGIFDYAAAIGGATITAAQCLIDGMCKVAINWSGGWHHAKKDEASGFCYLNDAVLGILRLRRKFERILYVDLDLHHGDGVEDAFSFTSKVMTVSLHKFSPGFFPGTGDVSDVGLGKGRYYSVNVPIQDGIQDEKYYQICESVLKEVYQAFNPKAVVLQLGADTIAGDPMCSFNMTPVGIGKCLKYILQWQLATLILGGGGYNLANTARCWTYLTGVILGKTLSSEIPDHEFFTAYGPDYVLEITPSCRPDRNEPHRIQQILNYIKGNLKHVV
Description: HDAC8 biochemical assay, AMC-labeled peptide substrate. The following applies: read-out: HDAC Isoform IC50 (nM) 8. The protocol: (§1) Activity against all zinc-dependent HDACs 1 to 11 was assessed by using an acetylated AMC-labeled peptide substrate. The substrate RHKK(Ac)AMC was used for HDAC1, HDAC2, HDAC3, HDAC6 and HDAC10; the substrate used for HDAC8 was RHK(Ac)K(Ac)AMC. Activity against the class IIa HDACs (HDAC4, 5, 7, 9) and HDAC11 was determined using a class IIa-specific substrate, BOC-Lys(trifluoroacetyl)-AMC (“Trifluoroacetyl Lysine”; see Lahm et al, 2007, PNAS, 104, 17335-17340). All assays were based on the AMC-labeled substrate and developer combination.
(§2) The protocol involved a two-step reaction: first, the substrate with the acetylated lysine side chain is incubated with a sample containing HDAC activity, to produce the deacetylated products, which are then digested in the second step by the addition of developer to produce the fluorescent signal proportional to the amount of deacetylated substrates.
Human HDAC8 (GenBankAccession No. NM_018486), full length with C-terminal His tag, MW=42.6 kDa, expressed in a baculovirus expression system.
(§3) Assay Buffer: 50 mM Tris-HCl, pH8.0, 137 mM NaCl, 2.7 mM KCl, 1 mM MgC2. Before use, 1 mg/mL BSA and DMSO are added.
HDAC8: 1 ng/ul HDAC8 and 100 µM HDAC8 substrate are in the reaction buffer with 1% DMSO final. Incubate for 2 hours at 30° C.
(§4) Stage 1: Deacetylation of substrate by incubation of HDAC enzymes with compounds
(§5) Stage 2: Development by addition of Developer to digest the deacetylated substrate, and generate the fluorescent colour; Detection: 360/460 Ex/Em

Assay [2] addresses T2, Human HDAC1 (Homo sapiens, UniProt Q13547).
T2 construct: full length with C-terminal His-tag and C-terminal FLAG-tag; His (C); FLAG (C); host or cells: baculovirus expression system
Description: HDAC1 biochemical assay, AMC-labeled peptide substrate. The following applies: read-out: HDAC Isoform IC50 (nM) 1. The method in brief: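 Two-step fluorogenic read: HDAC1 deacetylates 50 μM acetyl-lysine AMC peptide RHKK(Ac)AMC for 1 h at 30° C (pH 8.0, 1% DMSO, with compound), then developer digests the product for fluorescence at Ex/Em 360/460. Enzyme is full-length human, His/FLAG-tagged, insect-cell expressed, at 0.3 ng/ul.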

Assay [3] concerns the target T3, Human HDAC7 (Homo sapiens, UniProt Q8WUI4).
T3 construct: (a.a. 518-end) with N-terminal GST tag; GST (N); host or cells: baculovirus expression system
T3 sequence (Q8WUI4 518-952 limits assumed): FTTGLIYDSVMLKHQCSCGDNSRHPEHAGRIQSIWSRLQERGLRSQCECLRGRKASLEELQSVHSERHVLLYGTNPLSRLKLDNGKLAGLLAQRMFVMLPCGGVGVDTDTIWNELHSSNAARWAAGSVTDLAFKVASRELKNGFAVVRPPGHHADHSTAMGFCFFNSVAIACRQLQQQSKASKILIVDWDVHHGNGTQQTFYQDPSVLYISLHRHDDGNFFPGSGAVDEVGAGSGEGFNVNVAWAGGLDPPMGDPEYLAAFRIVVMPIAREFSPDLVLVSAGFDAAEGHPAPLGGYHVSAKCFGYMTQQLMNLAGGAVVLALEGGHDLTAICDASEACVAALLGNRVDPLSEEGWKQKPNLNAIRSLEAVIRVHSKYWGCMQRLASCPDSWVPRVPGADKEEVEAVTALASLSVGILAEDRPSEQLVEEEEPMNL
The assay can be described thus: HDAC7 biochemical assay, class IIa-specific substrate. The following applies: read-out: HDAC Isoform IC50 (nM) 7. An outline of the steps: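 Two-step fluorogenic readout: class IIa-selective trifluoroacetyl-lysine AMC substrate (50 μM) deacetylated by N-terminal GST-HDAC7 fragment (0.001 ng/ul), then digested by developer, Ex/Em 360/460. Reaction: 30 min, room temperature, Tris-HCl pH 8.0, NaCl/KCl/MgCl2, 1 mg/mL BSA, 1% DMSO.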

Assay [4] has as its target T4, Human HDAC5 (Homo sapiens, UniProt Q9UQL6).
T4 construct: full length with C-terminal His tag, MW=51.1 kDa; His (C); host or cells: baculovirus expression system
Description: HDAC5 biochemical assay, class IIa-specific substrate. The following applies: read-out: HDAC Isoform IC50 (nM) 5. An outline of the steps:
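Two-step fluorogenic read-out: deacetylated trifluoroacetyl-lysine AMC substrate (50 μM) digested by developer, measured at Ex/Em 360/460. Deacetylation step: 0.05 ng/ul His-tagged full-length baculoviral enzyme with compound, 30 min, room temperature, pH 8.0 Tris with 1 mg/mL BSA and 1% DMSO.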

The target in assay [5] is T5, Human HDAC2 (Homo sapiens, UniProt Q92769).
T5 construct: full length with C-terminal GST-tag; GST (C); host or cells: baculovirus expression system
T5 sequence (Q92769 whole entry): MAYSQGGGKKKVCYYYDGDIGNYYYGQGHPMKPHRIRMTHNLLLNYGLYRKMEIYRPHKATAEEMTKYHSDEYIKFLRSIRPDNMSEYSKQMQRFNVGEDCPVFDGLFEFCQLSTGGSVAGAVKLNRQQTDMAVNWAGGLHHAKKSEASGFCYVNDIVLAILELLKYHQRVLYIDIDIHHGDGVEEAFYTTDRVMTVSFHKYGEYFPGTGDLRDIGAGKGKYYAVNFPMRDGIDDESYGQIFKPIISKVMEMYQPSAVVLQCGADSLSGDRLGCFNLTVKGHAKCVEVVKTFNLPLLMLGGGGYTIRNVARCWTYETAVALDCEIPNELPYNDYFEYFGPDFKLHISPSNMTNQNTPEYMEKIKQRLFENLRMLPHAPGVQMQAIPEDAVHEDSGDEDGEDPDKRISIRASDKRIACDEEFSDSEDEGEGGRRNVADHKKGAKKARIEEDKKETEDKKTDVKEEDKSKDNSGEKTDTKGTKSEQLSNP
The assay can be described thus: HDAC2 biochemical assay, AMC-labeled peptide substrate. The note with it: read-out: HDAC Isoform IC50 (nM) 2. On the procedure: as §1, §2
Human HDAC2 (GenBank Accession No. NM_001527), full length with C-terminal GST-tag, MW=82.9 kDa, expressed inbaculovirus expression system.
as §3
HDAC2: 0.07 ng/ul HDAC2 and 50 μM HDAC substrate are in the reaction buffer with 1% DMSO final. Incubate for 1 hour at 30° C.
as §4, §5

T2 sequence (Q13547 whole entry): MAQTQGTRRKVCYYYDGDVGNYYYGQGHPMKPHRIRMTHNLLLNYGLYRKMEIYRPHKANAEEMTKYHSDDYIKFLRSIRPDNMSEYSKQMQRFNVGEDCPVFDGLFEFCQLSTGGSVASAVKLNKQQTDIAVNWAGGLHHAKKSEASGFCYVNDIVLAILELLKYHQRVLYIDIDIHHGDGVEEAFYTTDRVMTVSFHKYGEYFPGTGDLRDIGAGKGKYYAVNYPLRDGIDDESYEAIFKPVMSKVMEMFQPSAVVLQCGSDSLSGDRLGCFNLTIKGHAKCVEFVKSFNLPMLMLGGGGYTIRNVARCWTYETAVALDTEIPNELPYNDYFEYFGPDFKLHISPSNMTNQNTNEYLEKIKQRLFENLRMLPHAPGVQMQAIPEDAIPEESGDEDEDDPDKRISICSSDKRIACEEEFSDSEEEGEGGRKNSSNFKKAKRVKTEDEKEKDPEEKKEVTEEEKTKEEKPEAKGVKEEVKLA
T4 sequence (Q9UQL6 656-1122 limits assumed): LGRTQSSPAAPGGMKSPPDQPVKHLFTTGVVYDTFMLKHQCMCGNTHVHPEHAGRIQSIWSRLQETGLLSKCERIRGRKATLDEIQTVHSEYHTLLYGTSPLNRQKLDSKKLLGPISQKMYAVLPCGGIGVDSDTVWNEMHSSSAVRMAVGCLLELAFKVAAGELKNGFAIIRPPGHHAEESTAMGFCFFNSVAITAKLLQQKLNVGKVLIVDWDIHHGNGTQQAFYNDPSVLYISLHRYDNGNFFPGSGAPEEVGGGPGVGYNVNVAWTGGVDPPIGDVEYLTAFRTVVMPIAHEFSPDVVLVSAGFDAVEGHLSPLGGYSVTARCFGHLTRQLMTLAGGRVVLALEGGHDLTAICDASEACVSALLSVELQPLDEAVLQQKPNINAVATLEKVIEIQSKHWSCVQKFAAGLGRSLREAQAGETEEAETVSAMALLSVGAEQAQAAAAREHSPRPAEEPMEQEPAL

What is called IC50 is the concentration that inhibits the measured activity by half. For the compound `COc1cncc(N(Cc2ccc(-c3noc(C(F)(F)F)n3)s2)c2cnccn2)n1` [Example BQ, 6-Methoxy-N-(pyrazin-2-yl)-N-({5-[5-(trifluoromethyl)-1,2,4-oxadiazol-3-yl]thiophen-2-yl}methyl)pyrazin-2-amine], the IC50 in assay [1] is ≤ 10000 nM; in assay [2] it was > 10000 nM; in assay [3], ≤ 10000 nM; in assay [4], ≤ 1000 nM; in assay [5], > 10000 nM.
For the compound `FC(F)(F)c1cncc(N(Cc2ccc(-c3noc(C(F)(F)F)n3)s2)c2cnccn2)n1` [Example BR, N-(Pyrazin-2-yl)-6-(trifluoromethyl)-N-({5-[5-(trifluoromethyl)-1,2,4-oxadiazol-3-yl]thiophen-2-yl}methyl)pyrazin-2-amine], the IC50 was ≤ 10000 nM in assay [1]; > 10000 nM in assay [2]; ≤ 10000 nM in assay [3]; ≤ 10000 nM in assay [4]; > 10000 nM in assay [5].
As to `NC(=O)c1ccc(N(Cc2ccc(-c3noc(C(F)(F)F)n3)s2)c2cnccn2)nn1` [Example DQ, 6-[(Pyrazin-2-yl)({5-[5-(trifluoromethyl)-1,2,4-oxadiazol-3-yl]thiophen-2-yl}methyl)amino]pyridazine-3-carboxamide], the IC50 is ≤ 10000 nM in assay [1]; ≤ 10000 nM in assay [2]; ≤ 500 nM in assay [3]; ≤ 500 nM in assay [4]; > 10000 nM in assay [5].
`COC1CN(C(=O)c2ccc(N(Cc3ccc(-c4noc(C(F)(F)F)n4)s3)c3cnccn3)nn2)C1` [Example DR, 6-(3-Methoxyazetidine-1-carbonyl)-N-(pyrazin-2-yl)-N-({5-[5-(trifluoromethyl)-1,2,4-oxadiazol-3-yl]thiophen-2-yl}methyl)pyridazin-3-amine]: the IC50 in assay [1] is ≤ 10000 nM; in assay [2], ≤ 10000 nM; in assay [3], ≤ 500 nM; in assay [4], ≤ 500 nM; in assay [5] it was > 10000 nM.
Turning to `O=C(c1ccc(N(Cc2ccc(-c3noc(C(F)(F)F)n3)s2)c2cnccn2)nn1)N1CCOCC1` [Example DS, 6-(Morpholine-4-carbonyl)-N-(pyrazin-2-yl)-N-({5-[5-(trifluoromethyl)-1,2,4-oxadiazol-3-yl]thiophen-2-yl}methyl)pyridazin-3-amine], the half-inhibitory concentration (IC50) in assay [1] is ≤ 10000 nM; in assay [2] it was > 10000 nM; in assay [3] it was ≤ 500 nM; in assay [4] it was ≤ 500 nM; in assay [5], > 10000 nM.
Consider `O=C(O)c1cnnc(N(Cc2ccc(-c3noc(C(F)(F)F)n3)s2)c2cnccn2)c1` [Example DW, 6-[(Pyrazin-2-yl)({5-[5-(trifluoromethyl)-1,2,4-oxadiazol-3-yl]thiophen-2-yl}methyl)amino]pyridazine-4-carboxylic acid], for which the IC50 was ≤ 10000 nM in assay [1]; > 10000 nM in assay [2]; ≤ 10000 nM in assay [3]; ≤ 10000 nM in assay [4]; > 10000 nM in assay [5].
Take `NC(=O)c1cnnc(N(Cc2ccc(-c3noc(C(F)(F)F)n3)s2)c2cnccn2)c1` [Example DX, 6-[(Pyrazin-2-yl)({5-[5-(trifluoromethyl)-1,2,4-oxadiazol-3-yl]thiophen-2-yl}methyl)amino]pyridazine-4-carboxamide]: the IC50 in assay [1] was ≤ 10000 nM; in assay [2], > 10000 nM; in assay [3], ≤ 500 nM; in assay [4], ≤ 500 nM; in assay [5], > 10000 nM.
Consider `CNC(=O)c1cnnc(N(Cc2ccc(-c3noc(C(F)(F)F)n3)s2)c2cnccn2)c1` [Example DY, N-Methyl-6-[(pyrazin-2-yl)({5-[5-(trifluoromethyl)-1,2,4-oxadiazol-3-yl]thiophen-2-yl}methyl)amino]pyridazine-4-carboxamide], for which the IC50 in assay [1] was ≤ 10000 nM; in assay [2] it was > 10000 nM; in assay [3], ≤ 500 nM; in assay [4], ≤ 1000 nM; in assay [5], > 10000 nM.
For the compound `COC1CN(C(=O)c2cnnc(N(Cc3ccc(-c4noc(C(F)(F)F)n4)s3)c3cnccn3)c2)C1` [Example DZ, 5-(3-Methoxyazetidine-1-carbonyl)-N-(pyrazin-2-yl)-N-({5-[5-(trifluoromethyl)-1,2,4-oxadiazol-3-yl]thiophen-2-yl}methyl)pyridazin-3-amine], the IC50 in assay [1] was ≤ 10000 nM; in assay [2] it was > 10000 nM; in assay [3], ≤ 1000 nM; in assay [4] it was ≤ 1000 nM; in assay [5], > 10000 nM.
In the case of `O=C(c1cnnc(N(Cc2ccc(-c3noc(C(F)(F)F)n3)s2)c2cnccn2)c1)N1CCCC1` [Example EA, N-(Pyrazin-2-yl)-5-(pyrrolidine-1-carbonyl)-N-({5-[5-(trifluoromethyl)-1,2,4-oxadiazol-3-yl]thiophen-2-yl}methyl)pyridazin-3-amine], the IC50 is ≤ 10000 nM in assay [1]; > 10000 nM in assay [2]; ≤ 10000 nM in assay [3]; ≤ 1000 nM in assay [4]; > 10000 nM in assay [5].
In the case of `O=C(c1cnnc(N(Cc2ccc(-c3noc(C(F)(F)F)n3)s2)c2cnccn2)c1)N1CCOCC1` [Example EB, 5-(Morpholine-4-carbonyl)-N-(pyrazin-2-yl)-N-({5-[5-(trifluoromethyl)-1,2,4-oxadiazol-3-yl]thiophen-2-yl}methyl)pyridazin-3-amine], the IC50 is ≤ 10000 nM in assay [1]; > 10000 nM in assay [2]; ≤ 1000 nM in assay [3]; ≤ 1000 nM in assay [4]; > 10000 nM in assay [5].
Consider `CN1CCN(C(=O)c2cnnc(N(Cc3ccc(-c4noc(C(F)(F)F)n4)s3)c3cnccn3)c2)CC1` [Example EC, 5-(4-Methylpiperazine-1-carbonyl)-N-(pyrazin-2-yl)-N-({5-[5-(trifluoromethyl)-1,2,4-oxadiazol-3-yl]thiophen-2-yl}methyl)pyridazin-3-amine], for which the IC50 in assay [1] was ≤ 10000 nM; in assay [2], > 10000 nM; in assay [3] it was ≤ 1000 nM; in assay [4], ≤ 10000 nM; in assay [5], > 10000 nM.

For the origin of these results see patent US20210038607A1, “OXADIAZOLYLTHIOPHENE DERIVATIVES USEFUL AS HISTONE DEACETYLASE INHIBITORS” (Karus Therapeutics Limited, priority 2018, published 2021).
